The results in this text go back to patent US20140371244A1, “METHOD FOR TREATING PROSTATE CANCER BY USE OF PHARMACEUTICAL COMPOSITION CONTAINING A3 ADENOSINE RECEPTOR AGONIST” (priority 2009, published 2014).

Data set [1] deals with PC-3 cells. In words: Cell cycle analysis (FACS) in PC-3 cells. The note with it: 40, 20 and 10 μM, 48 hours. It counts as cell-based, human. The protocol: Cells were treated with 40, 20 and 10 μM of thio-Cl-IB-MECA and cultured for 48 hours, and the cell cycle of the cells was analyzed by flow cytometer analysis (FACS). Specifically, cells were diluted with 10% FBS-containing medium to a density of 1.0×10^6 cells per 100 mm culture dish and cultured under the conditions of 37° C. and 5% CO2 for 24 hours, followed by washing twice with PBS. Thio-Cl-IB-MECA was diluted in 10% FBS-containing medium at required concentration, and then 10 ml of the culture medium prepared in the 100 mm culture dish was added thereto and cultured for a given time. The non-adherent cells and adherent cells in the cell medium were collected and washed twice with PBS, after which 500 μL of 100% cold methanol was added thereto and the cells were fixed at 4° C. The cells were washed twice with PBS and allowed to stand in RNase A-containing solution for 30 minutes, after which the cells were stained with propidium iodide (PI) buffer for 5 minutes. After removal of the PI buffer, the cells were transferred into a polystyrene round-bottom tube, and cell cycle analysis was performed by FACScalibur® flow cytometry.

Data set [2] deals with PC-3 cells. The experiment in a line: Western blot of cell cycle regulation-related proteins and Wnt signaling in PC-3 cells. It counts as cell-based, human. The protocol:
A test was carried out to examine whether the inhibitory effects of thio-Cl-IB-MECA on the proliferation of LNCaP cells and PC-3 cells are attributable to regulation of the Wnt signaling pathway.
(§1) Specifically, each type of LNCaP cells and PC-3 cells was diluted with 10% FBS-containing medium to a density of 1.0×10^6 cells per 100 mm culture dish and cultured under the conditions of 37° C. and 5% CO2 for 24 hours, followed by washing twice with PBS. Thio-Cl-IB-MECA was diluted in 10% FBS-containing medium at required concentration, and then 10 ml of the culture medium prepared in the 100 mm culture dish was added thereto and cultured for a given period. The non-adherent cells and adherent cells in the cell medium were collected and washed twice with PBS, after which the cells were suspended in boiling cell lysis buffer and heated at 100° C. for 5 minutes. The cells were cooled and then stored at […], and the stored cells were thawed at 37° C. immediately before use in protein quantification and electrophoresis. Protein quantification was performed using the BCA method, and […] of protein was electrophoresed on 8-12% SDS-polyacrylamide gel at 150 V for 110 minutes. The gel at the desired site was cut and transferred to a PVDF (polyvinylidene fluoride) for 1 hour, and after which it was washed twice with PBST and stirred in blocking buffer at room temperature for 1 hour. Then, the membrane was washed three times with PBST for 5 minutes each time, after which primary antibody was diluted at a ratio of 1:1,000-1:2,000 with 3% skimmed milk/PBST, and it was sealed together with the membrane and incubated with stirring at 4° C. for 12 hours or more. The membrane was washed 2-3 times with PBST for 5 minutes each time, after which HRP-conjugated secondary antibody was diluted at a ratio of 1:1,500-1:2,000 and incubated with the membrane at room temperature for 2-3 hours. The membrane was washed three times with PBST for 5 minutes each time and treated with a Western blot substrate (WESTSAVE Up™), and the produced luminescence was examined using LAS-3000.

Data set [3] has as its system Human colorectal cancer HCT116 cells. In words: Morphological change of HCT116 cells. It counts as cell-based. The note with it: 40 μM, 48 hours. The protocol: Human colorectal cancer HCT116 cells were treated with 40 μM of thio-Cl-IB-MECA and cultured for 48 hours, and then the morphological change of the cells was observed.
Specifically, HCT116 cells were diluted with 10% FBS (Fetal Bovine Serum)-containing medium to a density of 1.0×10^6 cells per 100 mm culture dish and cultured under the conditions of 37° C. and 5% CO2, followed by washing twice with PBS (Phosphate Buffered Saline). Thio-Cl-IB-MECA was diluted to a concentration of 40 μM, and then 10 ml of the culture medium prepared in the 100 mm culture dish was added thereto and incubated for a given time. The morphology of the cells was observed as a function of treatment time and concentration (FIG. 19).

Another data set concerns ICR white mice. In words: Animal toxicity test, single oral dose. It counts as in vivo. The note with it: oral 1500 mg/kg, n=10. As for the experimental part:
In order to examine the toxicities of thio-Cl-IB-MECA and thio-IB-MECA, each of the compounds was administered orally to ICR white mice (n=10, 25 g) at a dose of 1500 mg/kg weight, and the behavioral change and state of the mice were observed.

The next data set relates to HCT 116 cells. In words: Western blot of cell cycle regulation-related proteins and Wnt signaling in HCT 116 cells. Format: cell-based, human. The note with it: 40 μM. As for the experimental part: Because it was confirmed that thio-Cl-IB-MECA arrests the G1 phase of human colorectal cancer HCT 116 cells, a test was carried out to examine whether cell cycle regulation-related proteins involved in the G1 phase are expressed and to examine the expression of Wnt-related proteins in order to examine whether the inhibitory effect of thio-Cl-IB-MECA on the proliferation of cancer cells is attributable to regulation of the signaling pathway.
as §1, with “HCT 116” for “each type of LNCaP”, “were” for “and PC-3 cells was”, “1×10^6” for “1.0×10^6”, “to a concentration of 40 μM,” for “at required concentration,”

Regarding `CNC(=O)[C@H]1S[C@@H](n2cnc3c(NCc4cccc(I)c4)nc(Cl)nc32)[C@H](O)[C@@H]1O` [thio-Cl-IB-MECA, 2-chloro-N^6-(3-iodobenzyl)-4′-thioadenosine-5′-N-methyluronamide], in the data set with PC-3 cells [1], the “G1 phase of cell cycle, PC-3” value is on record as “an increase in the G1 phase appeared”. Besides, in the data set on PC-3 cells [2], the “Wnt signaling pathway, PC-3” value is listed as “inhibited the Wnt signaling pathway”; the “expression and RB phosphorylation of cyclin D, cyclin A, CDK4, c-myc and PCNA, PC-3” value was “inhibited the expression and RB phosphorylation”; the “expression of p53 and p27, PC-3” value is reported as “increased the expression”. Besides, the “number of the cells, HCT116” value in data set [3] is on record as “decreased”. For the same molecule, the “survival and side effects up to 7 days after administration” value in the data set on ICR white mice is recorded as “survived healthfully without particular side effects”. Moreover, in the data set on HCT 116 cells, the Wnt signaling pathway result was “inhibited the Wnt signaling pathway”; the “expression of Rb and p-Rb” value is “also inhibited the expression”; the “expression of cyclin D1, cyclin A and cyclin E” value is reported as “inhibited the expression”; the “expression of p53” value is recorded as “increased the expression”.
